Key:
[1] = system: ENR+CD organoids (ISC to Paneth cell differentiation); assay: Primary screen: basal (non-stimulated) lysozyme secretion LYZ.NS, 2.5-D 384-well ENR+CD organoid differentiation; format: cell-based, mouse
Source text: (§1) High-throughput screening.

[2] = system: ENR+CD organoids (ISC to Paneth cell differentiation); assay: Primary screen: CCh-stimulated lysozyme secretion LYZ.S, 2.5-D 384-well ENR+CD organoid differentiation; format: cell-based, mouse; details: primary screen
Source text: as §1

[3] = system: ENR+CD organoids; assay: Primary screen: ATP (CellTiter-Glo 3D, CTG) cell number/viability, 2.5-D 384-well ENR+CD organoids;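 also: compounds given at plating and again on day 3 over a 6-day differentiation from ENR+CV stem-cell-enriched precursors, ATP measured on day 6, plate median as control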
[4] = primary screen, 1st dose row of the treatment (0.08 uM by row order; dose not reprinted)
[5] = primary screen, 2nd dose row of the treatment (0.40 uM by row order; dose not reprinted)
[6] = primary screen, 3rd dose row of the treatment (2.00 uM by row order; dose not reprinted)
[7] = primary screen, 4th dose row of the treatment (10.00 uM by row order; dose not reprinted)
[8] = 1st dose row of the treatment (0.08 uM by row order; dose not reprinted)
[9] = 2nd dose row of the treatment (0.40 uM by row order; dose not reprinted)
[10] = 3rd dose row of the treatment (2.00 uM by row order; dose not reprinted)
[11] = 4th dose row of the treatment (10.00 uM by row order; dose not reprinted)
[12] = primary screen, dose 0.08 uM, FC relative to plate median
[13] = primary screen, dose 0.08 uM, standard z score
[14] = primary screen, dose 0.40 uM, FC relative to plate median
[15] = primary screen, dose 0.40 uM, standard z score
[16] = primary screen, dose 2.00 uM, FC relative to plate median
[17] = primary screen, dose 2.00 uM, standard z score
[18] = primary screen, dose 10.00 uM, FC relative to plate median
[19] = primary screen, dose 10.00 uM, standard z score
[20] = primary screen, standard z score, dose 0.08 uM
[21] = primary screen, standard z score, dose 0.40 uM
[22] = primary screen, standard z score, dose 2.00 uM
[23] = primary screen, standard z score, dose 10.00 uM

Structure (SMILES) | Dose.FC.LYZ.NS ([1]; primary screen, dose 0.08 uM) | Z.LYZ.NS (standard z score) ([1]; primary screen, dose 0.08 uM) | Dose.FC.LYZ.NS ([1]; primary screen, dose 0.40 uM) | Z.LYZ.NS (standard z score) ([1]; primary screen, dose 0.40 uM) | Dose.FC.LYZ.NS ([1]; primary screen, dose 2.00 uM) | Z.LYZ.NS (standard z score) ([1]; primary screen, dose 2.00 uM) | Dose.FC.LYZ.NS ([1]; primary screen, dose 10.00 uM) | Z.LYZ.NS (standard z score) ([1]; primary screen, dose 10.00 uM) | Dose.FC.LYZ.S ([2]; dose 0.08 uM) | Dose.FC.LYZ.S ([2]; dose 0.40 uM) | Dose.FC.LYZ.S ([2]; dose 2.00 uM) | Dose.FC.LYZ.S ([2]; dose 10.00 uM) | Dose.FC.CTG ([3]; primary screen, dose 0.08 uM) | Dose.FC.CTG ([3]; primary screen, dose 0.40 uM) | Dose.FC.CTG ([3]; primary screen, dose 2.00 uM) | Dose.FC.CTG ([3]; primary screen, dose 10.00 uM) | Z.LYZ.NS [1, 20] | Z.LYZ.NS [1, 21] | Z.LYZ.NS [1, 22] | Z.LYZ.NS [1, 23] | also measured
COc1cc2c(cc1O)CC[C@@H]1[C@@H]2CC[C@]2(C)[C@@H](O)CC[C@@H]12 [2-Methoxyestradiol (2-MeOE2)] | 0.021 log2 fold change | 0.186 | 0.065 log2 fold change | 0.566 | 0.005 log2 fold change | 0.041 | −0.139 log2 fold change | −1.209 | 0.189 log2 fold change | 0.270 log2 fold change | 0.029 log2 fold change | −0.278 log2 fold change | 0.299 log2 fold change | 0.401 log2 fold change | 0.227 log2 fold change | −0.672 log2 fold change |  |  |  |  | SSMD.LYZ.NS_Rep (strictly standardized mean difference) [1, 4]: 0.077; SSMD.LYZ.NS_Rep (strictly standardized mean difference) [1, 5]: 0.227; SSMD.LYZ.NS_Rep (strictly standardized mean difference) [1, 6]: 0.049; SSMD.LYZ.NS_Rep (strictly standardized mean difference) [1, 7]: −0.826; SSMD.LYZ.S_Rep (strictly standardized mean difference) [2, 8]: 1.015; Z.LYZ.S (standard z score) [2, 8]: 1.224; SSMD.LYZ.S_Rep (strictly standardized mean difference) [2, 9]: 0.831; Z.LYZ.S (standard z score) [2, 9]: 1.747; SSMD.LYZ.S_Rep (strictly standardized mean difference) [2, 10]: 0.144; Z.LYZ.S (standard z score) [2, 10]: 0.190; SSMD.LYZ.S_Rep (strictly standardized mean difference) [2, 11]: −1.135; Z.LYZ.S (standard z score) [2, 11]: −1.795; SSMD.CTG.Rep (strictly standardized mean difference) [3, 4]: 0.407; SSMD.CTG.Rep (strictly standardized mean difference) [3, 5]: 0.930; SSMD.CTG.Rep (strictly standardized mean difference) [3, 6]: 0.461; SSMD.CTG.Rep (strictly standardized mean difference) [3, 7]: −0.878; Z.CTG (standard z score) ([3]; primary screen, dose 0.08 uM): 0.714; Z.CTG (standard z score) ([3]; primary screen, dose 0.40 uM): 0.957; Z.CTG (standard z score) ([3]; primary screen, dose 2.00 uM): 0.543; Z.CTG (standard z score) ([3]; primary screen, dose 10.00 uM): −1.606
Cc1nn(-c2ccccc2)c(C)c1/C=N/N1CCN(Cc2ccccc2)CC1 [SANT-1] |  |  |  |  |  |  |  |  |  |  |  |  |  |  |  |  |  |  |  |  | Dose.FC.LYZ.NS [1, 12]: 0.056 log2 fold change; Z.LYZ.NS [1, 13]: 0.485; Dose.FC.LYZ.NS [1, 14]: 0.000 log2 fold change; Z.LYZ.NS [1, 15]: 0.002; Dose.FC.LYZ.NS [1, 16]: 0.175 log2 fold change; Z.LYZ.NS [1, 17]: 1.528; Dose.FC.LYZ.NS [1, 18]: −0.049 log2 fold change; Z.LYZ.NS [1, 19]: −0.430; Dose.FC.LYZ.S ([2]; dose 0.08 uM, FC relative to plate median): 0.112 log2 fold change; Dose.FC.LYZ.S ([2]; dose 0.40 uM, FC relative to plate median): 0.024 log2 fold change; Dose.FC.LYZ.S ([2]; dose 2.00 uM, FC relative to plate median): 0.101 log2 fold change; Dose.FC.LYZ.S ([2]; dose 10.00 uM, FC relative to plate median): −0.120 log2 fold change; Dose.FC.CTG [3, 12]: 0.308 log2 fold change; Z.CTG [3, 13]: 0.736; Dose.FC.CTG [3, 14]: 0.078 log2 fold change; Z.CTG [3, 15]: 0.186; Dose.FC.CTG [3, 16]: 0.137 log2 fold change; Z.CTG [3, 17]: 0.327; Dose.FC.CTG [3, 18]: −0.042 log2 fold change; Z.CTG [3, 19]: −0.100
CC(C)C[C@H](NC(=O)[C@@H](NC(=O)c1cccc(-c2ccccc2)n1)[C@@H](C)O)B(O)O [CEP-18770 (Delanzomib)] | −0.108 log2 fold change |  | −0.076 log2 fold change |  | −0.063 log2 fold change |  | −0.035 log2 fold change |  | −0.179 log2 fold change | −0.159 log2 fold change | −0.180 log2 fold change | −0.149 log2 fold change | −0.953 log2 fold change | −1.642 log2 fold change | −0.990 log2 fold change | −1.148 log2 fold change | −0.937 | −0.664 | −0.546 | −0.308 | Z.CTG [3, 20]: −2.276; Z.CTG [3, 21]: −3.923; Z.CTG [3, 22]: −2.364; Z.CTG [3, 23]: −2.742
Cc1cccc(CC(=O)N2CCc3c2ccc(-c2cn(C)c4ncnc(N)c24)c3F)n1 [GSK2656157] |  | −0.267 |  | −0.396 |  | −0.291 |  | −0.102 |  |  |  |  |  |  |  |  |  |  |  |  | Dose.FC.LYZ.NS (log2 fold change) ([1]; primary screen, dose 0.08 uM): −0.031; Dose.FC.LYZ.NS (log2 fold change) ([1]; primary screen, dose 0.40 uM): −0.045; Dose.FC.LYZ.NS (log2 fold change) ([1]; primary screen, dose 2.00 uM): −0.033; Dose.FC.LYZ.NS (log2 fold change) ([1]; primary screen, dose 10.00 uM): −0.012; Dose.FC.LYZ.S (log2 fold change) ([2]; dose 0.08 uM): −0.008; Dose.FC.LYZ.S (log2 fold change) ([2]; dose 0.40 uM): 0.060; Dose.FC.LYZ.S (log2 fold change) ([2]; dose 2.00 uM): −0.020; Dose.FC.LYZ.S (log2 fold change) ([2]; dose 10.00 uM): 0.090; Dose.FC.CTG (log2 fold change) ([3]; primary screen, dose 0.08 uM): 0.068; Z.CTG (standard z score) ([3]; primary screen, dose 0.08 uM): 0.162; Dose.FC.CTG (log2 fold change) ([3]; primary screen, dose 0.40 uM): 0.115; Z.CTG (standard z score) ([3]; primary screen, dose 0.40 uM): 0.274; Dose.FC.CTG (log2 fold change) ([3]; primary screen, dose 2.00 uM): 0.083; Z.CTG (standard z score) ([3]; primary screen, dose 2.00 uM): 0.197; Dose.FC.CTG (log2 fold change) ([3]; primary screen, dose 10.00 uM): 0.119; Z.CTG (standard z score) ([3]; primary screen, dose 10.00 uM): 0.284
Cc1ccc(-c2cc(C(F)(F)F)nn2-c2ccc(S(N)(=O)=O)cc2)cc1 [Celecoxib] | −0.041 log2 fold change |  | −0.053 log2 fold change |  | −0.084 log2 fold change |  | −0.099 log2 fold change |  | −0.067 log2 fold change | −0.068 log2 fold change | −0.097 log2 fold change | −0.133 log2 fold change | −0.034 log2 fold change | −0.299 log2 fold change | −0.118 log2 fold change | −0.128 log2 fold change | −0.359 | −0.463 | −0.734 | −0.865 | 
CC1(COc2ccc3c(c2)ncn3-c2ccc3cccc(N4CCC(N)CC4)c3n2)COC1 [Crenolanib (CP-868596)] | 0.121 log2 fold change |  | 0.051 log2 fold change |  | 0.122 log2 fold change |  | −0.224 log2 fold change |  | 0.094 log2 fold change | 0.043 log2 fold change | 0.149 log2 fold change | −0.292 log2 fold change | −0.069 log2 fold change | −0.025 log2 fold change | 0.053 log2 fold change | −0.338 log2 fold change | 1.051 | 0.441 | 1.065 | −1.951 | Z.CTG [3, 20]: −0.165; Z.CTG [3, 21]: −0.059; Z.CTG [3, 22]: 0.127; Z.CTG [3, 23]: −0.808
CS(=O)(=O)N1CCN(Cc2cc3nc(-c4cccc5[nH]ncc45)nc(N4CCOCC4)c3s2)CC1 [GDC-0941] | 0.008 log2 fold change |  | −0.013 log2 fold change |  | −0.128 log2 fold change |  | −0.156 log2 fold change |  | 0.018 log2 fold change | −0.076 log2 fold change | −0.248 log2 fold change | −0.257 log2 fold change | 0.283 log2 fold change | 0.022 log2 fold change | −0.197 log2 fold change | −1.223 log2 fold change | 0.070 | −0.112 | −1.113 | −1.362 | Z.CTG [3, 20]: 0.677; Z.CTG [3, 21]: 0.053; Z.CTG [3, 22]: −0.472; Z.CTG [3, 23]: −2.921
C=C[C@@]1(C)CC(=O)[C@]2(O)[C@@]3(C)[C@@H](O)CCC(C)(C)[C@@H]3[C@H](O)[C@H](OC(C)=O)[C@@]2(C)O1 [Forskolin] | −0.007 log2 fold change |  | 0.159 log2 fold change |  | 0.191 log2 fold change |  | 0.219 log2 fold change |  | −0.004 log2 fold change | 0.237 log2 fold change | 0.102 log2 fold change | 0.128 log2 fold change | −0.213 log2 fold change | −0.175 log2 fold change | −0.330 log2 fold change | −0.119 log2 fold change | −0.058 | 1.381 | 1.661 | 1.905 | 
CC[C@H](NC(=O)[C@H](C)NC)C(=O)N1C[C@@H](O)C[C@H]1Cc1c(-c2[nH]c3cc(F)ccc3c2C[C@@H]2C[C@H](O)CN2C(=O)[C@H](CC)NC(=O)[C@H](C)NC)[nH]c2cc(F)ccc12 [Birinapant] | 0.032 log2 fold change | 0.281 | −0.012 log2 fold change | −0.102 | 0.036 log2 fold change | 0.317 | −0.029 log2 fold change | −0.256 | 0.075 log2 fold change | 0.103 log2 fold change | 0.011 log2 fold change | −0.080 log2 fold change | −0.257 log2 fold change | 0.095 log2 fold change | 0.227 log2 fold change | 0.123 log2 fold change |  |  |  |  | 

From patent US20220323406A1, “METHODS AND COMPOSITIONS FOR DIFFERENTIATING STEM CELLS” (Massachusetts Institute of Technology, priority 2019, published 2022)
